Read-outs that look alike come from different tables or passages of the source.
Experiments:
PKA catalytic subunit [1] = target: T1, PKA catalytic subunit (Homo sapiens, UniProt P17612); test: PKA-catalyzed phosphorylation of peptide/peptidomimetic substrates, [γ-32P]ATP, phosphocellulose paper binding; type: biochemical; settings: ATP 100 μM, 30°C, 50 mM TRIS/HCl, pH 7; for 10^2 kcat: Michaelis-Menten fit, value is kcat multiplied by 10^2; for 10^2 kII (second order rate constant): from the initial linear part of the Michaelis-Menten plot, value is kII multiplied by 10^2; for Km: substrate phosphorylation by PKA catalytic subunit, Michaelis-Menten fit of initial velocities, substrate concentration varied
Experimental: The phosphorylation reactions followed the classical Michaelis-Menten rate equation and therefore all substrates were characterized by the Km and kcat values, which correspond to the constant ATP concentration of 0.1 mM. The initial linear part of the Mihaelis-Menten plot was used for the calculation of the second order rate constants kII as described in [10] and these values are also listed in Table 1. Agreement between the parameters kII and values of the ratio of kcat/Km for substrates confirms the applicability of the Michelis-Menten rate equation for the description of the kinetic data.
The method of kinetic measurements was described in our previous article and was based on utilizing the radioactive ATP with [^32P]phosphate in γ-position. The phosphorylated substrates were bound onto Whatman phosphocellulose paper and the paper-bound radioactivity was counted. Linear plots between filter-bound radioactivity and time were used for calculating the initial velocity values of the phosphorylation reaction, which were thereafter processed by the classical Michaelis-Menten rate equation. Kinetic experiments were made at constant ATP concentration (100 μM) and the Km and kcat values were calculated for peptidomimetic substrates, concentrations of which were varied in the reaction mixture.

PKA catalytic subunit [2] = target: T1, PKA catalytic subunit; settings: parent peptide, cited from earlier work
Experimental: Table 1 Phosphorylation of N^β-methylated peptidomimetic substrates by PKA catalytic subunit at ATP concentration 100 μM, 30°C, 50 mM TRIS/HCl, pH 7 | column: Km (μM); 10^2 kcat (μmole mg^-1 s^-1); 10^2 kII (L mg^-1 s^-1)

Substance	10^2 kcat (PKA catalytic subunit [1])	10^2 kII (second order rate constant) (PKA catalytic subunit [1])	Km (PKA catalytic subunit [1])	Km (PKA catalytic subunit [2]; phosphorylation by PKA)	10^2 kII (second order rate constant) (PKA catalytic subunit [2]; value is kII multiplied by 10^2)	10^2 kcat (PKA catalytic subunit [2]; value is kcat multiplied by 10^2)
RRASVA [II, RRASVA analog with one N^β-Me-aza-β^3-amino acid residue; likely the second Arg]	11.9 ± 1.0 μmole mg^-1 s^-1	0.11 ± 0.07 L mg^-1 s^-1	79 ± 18 µM	–	–	–
RRASVA [I, RRASVA analog with one N^β-Me-aza-β^3-amino acid residue; likely the N-terminal Arg]	24.4 ± 1.5 μmole mg^-1 s^-1	0.098 ± 0.010 L mg^-1 s^-1	209 ± 24 µM	–	–	–
RRASVA	–	–	–	11.1 ± 3.5 µM	3.2 ± 0.1 L mg^-1 s^-1	36 ± 3 μmole mg^-1 s^-1
RRASVA [RRASVA analog with one N^β-Me-aza-β^3-amino acid residue; likely the C-terminal Ala]	5.0 ± 0.4 μmole mg^-1 s^-1	0.090 ± 0.015 L mg^-1 s^-1	57 ± 17 µM	–	–	–
RRASVA [IV, RRASVA analog with one N^β-Me-aza-β^3-amino acid residue; likely Val]	16 ± 2.0 μmole mg^-1 s^-1	0.12 ± 0.02 L mg^-1 s^-1	118 ± 36 µM	–	–	–
RRASVA [III, RRASVA analog with one N^β-Me-aza-β^3-amino acid residue; likely Ala at position -1]	5.5 ± 0.3 μmole mg^-1 s^-1	0.034 ± 0.005 L mg^-1 s^-1	91 ± 15 µM	–	–	–

From paper PMC3305904, “N^β-methylation changes the recognition pattern of aza-β^3-amino acid containing peptidomimetic substrates by protein kinase A” (Organic and Medicinal Chemistry Letters, 2011)
